Biological target: T1, human CaMKIIδ (Homo sapiens, UniProt Q13557)
T1 construct: Full-length, glutathione-S-transferase(GST)-tagged, human CaMKIIδ was purchased from Carna Biosciences; purchased Carna Biosciences (CaMKIIδ); Wako Pure Chemical Industries (calmodulin) 02-111
Experiment: Evaluation of in vitro CaMKII inhibitory activity (binding assay, TR-FRET)
Conditions: human CaMKIIδ, TR-FRET binding assay; class symbols A/B/C; read-out: Act (CaMKII inhibitory activity, binding assay)
Procedure, shortened: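 Inhibitors, in eight concentrations of 4-fold dilution, were incubated 1 h at room temperature with a protein–fluorescent probe premix preformed 30 min on ice, containing calmodulin and terbium anti-GST antibody. Displacement read by TR-FRET in duplicate; IC50 by logistic fitting.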

Row | SMILES | IC50 [nM]
1 | C[C@@H](Cn1cnnn1)Oc1cc(-c2ccn3ncc(-c4ccc(C(F)F)cc4)c3n2)ccc1F [compound 132] | 10 to 100
2 | C[C@@H](Cn1cnnn1)Oc1cc(-c2ccc3ncc(-c4cc(C#N)cn(C)c4=O)n3n2)ccc1F [compound 221] | < 10
3 | C[C@@H](Cn1cnnn1)Oc1cc(-c2ccc3ncc(-c4cccc(OC5CCNC5=O)c4C#N)n3n2)ccc1F (some centres unmarked) [compound 178] | < 10
4 | C[C@@H](Cn1cnnn1)Oc1cc(-c2ccn3ncc(-c4cnccc4C#N)c3n2)ccc1F [compound 138] | < 10
5 | C[C@@H](Cn1cnnn1)Oc1cccc(-c2ccn3ncc(-c4cccc(C(=O)NCCc5ccccc5)c4)c3n2)c1 [compound 105] | 10 to 100
6 | C[C@@H](Cn1cnnn1)Oc1cccc(-c2ccn3ncc(-c4cccc(C(=O)NCc5ccccn5)c4)c3n2)c1 [compound 92] | < 10
7 | C[C@@H](Cn1cnnn1)Oc1cccc(-c2ccn3ncc(-c4cccc(C(=O)NCC(C)(C)O)c4)c3n2)c1 [compound 80] | < 10
8 | C[C@@H](Cn1cnnn1)Oc1cc(-c2ccc3ncc(-c4cccc(OCC5CCC5)c4C#N)n3n2)ccc1F [compound 210] | < 10
9 | C[C@@H](Cn1cnnn1)Oc1cc(-c2ccn3ncc(-c4cccc(F)c4C#N)c3n2)ccc1F [compound 154] | < 10
10 | C[C@@H](Cn1cnnn1)Oc1cccc(-c2ccn3ncc(-c4cccc(C(=O)NCCN5CCS(=O)(=O)CC5)c4)c3n2)c1 [compound 87] | < 10
11 | COc1c(C(=O)NCCN2CCOCC2)cccc1-c1cnn2ccc(-c3ccc(F)c(O[C@@H](C)Cn4cnnn4)c3)nc12 [compound 152] | < 10
12 | C[C@@H](Cn1cnnn1)Oc1cccc(-c2ccn3ncc(-c4cccc(C(=O)NC5CCN(C)C5)c4)c3n2)c1 (some centres unmarked) [compound 88] | < 10
13 | C[C@@H](Cn1cnnn1)Oc1cc(-c2ccn3ncc(-c4ccc(Cl)cc4)c3n2)ccc1F [compound 135] | 10 to 100
14 | C[C@@H](Cn1cnnn1)Oc1cc(-c2ccn3ncc(-c4ccc(F)cc4)c3n2)ccc1F [compound 51] | < 10
15 | C[C@@H](Cn1cnnn1)Oc1cc(-c2ccc3ncc(-c4cccc(OCC#N)c4C#N)n3n2)ccc1F [compound 177] | < 10
16 | C[C@@H](Cn1cnnn1)Oc1cc(-c2ccc3ncc(-c4ccccn4)n3n2)ccc1F [compound 227, 2-[6-(4-fluoro-3-{[(2S)-1-(1H-tetrazol-1-yl)propan-2-yl]oxy}phenyl)imidazo[1,2-b]pyridazin-3-yl]pyridine] | < 10
17 | CCN(CC)C(=O)CNC(=O)c1cccc(-c2cnn3ccc(-c4cccc(O[C@@H](C)Cn5cnnn5)c4)nc23)c1 [compound 68] | < 10
18 | COc1cccc(-c2cnn3ccc(-c4ccc(F)c(O[C@@H](C)Cn5cnnn5)c4)nc23)c1 [compound 32] | < 10
19 | C[C@@H](Cn1cnnn1)Oc1cc(-c2ccn3ncc(-c4cccc(C#N)c4)c3n2)ccc1F [compound 29] | < 10
20 | C[C@@H](Cn1cnnn1)Oc1cc(-c2ccc3ncc(-c4cccc(O)c4C#N)n3n2)ccc1F [compound 170] | < 10
21 | C[C@@H](Cn1cnnn1)Oc1cccc(-c2ccn3ncc(-c4cccc(C(=O)NCCCN5CCCC5=O)c4)c3n2)c1 [compound 74] | < 10

Same assay, conditions: in vitro CaMKII inhibitory activity (binding assay), human CaMKIIδ; read-out: Act

Row | SMILES | IC50 [nM]
22 | C[C@@H](Cn1cnnn1)Oc1cccc(-c2ccc3ncc(-c4cncnc4C#N)n3n2)c1 [Example 267, 5-[6-(3-{[(2S)-1-(1H-tetrazol-1-yl)propan-2-yl]oxy}phenyl)imidazo[1,2-b]pyridazin-3-yl]pyrimidine-4-carbonitrile] | < 10
23 | COc1cc(F)cc(-n2cnc3ccc(-c4ccc(F)c(O[C@@H](C)Cn5cnnn5)n4)nc32)c1C#N [compound 439] | < 10
24 | COc1cccc(-c2cnc3ccc(-c4cncc(O[C@@H](C)Cn5cnnn5)n4)nn23)c1C#N [compound 428, 2-methoxy-6-[6-(6-{[(2S)-1-(1H-tetrazol-1-yl)propan-2-yl]oxy}pyrazin-2-yl)imidazo[1,2-b]pyridazin-3-yl]benzonitrile] | < 10
25 | CCc1ccc(C#N)c(-c2cnc3ccc(-c4cccc(O[C@@H](C)Cn5cnnn5)c4)nn23)n1 [compound 371] | < 10
26 | C[C@@H](Cn1cnnn1)Oc1cccc(-c2ccn3ncc(-c4ncccc4C#N)c3n2)c1 [compound 304] | < 10
27 | C[C@@H](Cn1cnnn1)Oc1cccc(-c2ccc3ncc(-c4nccc(N(C)C)c4C#N)n3n2)c1 [compound 356] | < 10
28 | CCc1ccnc(-c2cnc3ccc(-c4cccc(O[C@@H](C)Cn5cnnn5)c4)nn23)c1C#N [compound 380] | < 10
29 | C[C@@H](Cn1cnnn1)Oc1cccc(-c2ccc3nnc(-c4ncccc4C#N)n3n2)c1 [compound 391] | > 100
30 | COc1ccnc(-c2cnn3ccc(-c4ccc(F)c(O[C@@H](C)Cn5cnnn5)c4)nc23)c1C#N [compound 437] | < 10
31 | C[C@@H](Cn1cnnn1)Oc1cccc(-c2ccc3ncc(-c4cc(=O)n(C)cc4C#N)n3n2)c1 [compound 348] | < 10
32 | C[C@@H](Cn1cnnn1)Oc1cccc(-c2ccc3ncc(-c4nccc(NCC(F)F)c4C#N)n3n2)c1 [compound 367] | 10 to 100
33 | C[C@@H](Cn1cnnn1)Oc1cncc(-c2ccc3ncn(-c4cc(Cl)ccc4C#N)c3n2)n1 [compound 445] | 10 to 100
34 | C[C@@H](Cn1cnnn1)Oc1cccc(-c2ccc3ncc(-c4nccc(C5CC5)c4C#N)n3n2)c1 [compound 274] | < 10
35 | COCCOc1ccnc(-c2cnc3ccc(-c4cccc(O[C@@H](C)Cn5cnnn5)c4)nn23)c1C#N [compound 469] | < 10
36 | COc1cc(Cl)cc(-n2cnc3ccc(-c4cncc(O[C@@H](C)Cn5cnnn5)n4)nc32)c1C#N [Example 448, 4-chloro-2-methoxy-6-[5-(6-{[(2S)-1-(1H-tetrazol-1-yl)propan-2-yl]oxy}pyrazin-2-yl)-3H-imidazo[4,5-b]pyridin-3-yl]benzonitrile] | < 10
37 | C[C@@H](Cn1cnnn1)Oc1cccc(-c2ccc3ncc(-c4c(F)cccc4C#N)n3n2)n1 [compound 461] | 10 to 100
38 | COc1nc(-c2cnc3ccc(-c4cccc(O[C@@H](C)Cn5cnnn5)c4)nn23)ccc1C#N [compound 312] | < 10
39 | C[C@@H](Cn1cnnn1)Oc1cc(-c2ccc3ncc(-c4nccnc4C#N)n3n2)ccc1F [compound 290] | < 10
40 | C[C@@H](Cn1cnnn1)Oc1cccc(-c2ccc3ncc(-c4nccc(N(C)CC(F)F)c4C#N)n3n2)c1 [compound 376] | 10 to 100
41 | C[C@@H](Cn1cnnn1)Oc1cccc(-c2ccc3ncc(-c4nccc(C(F)F)c4C#N)n3n2)c1 [compound 401] | < 10
42 | C[C@@H](Cn1cnnn1)Oc1cc(-c2ccc3ncn(-c4cc(F)ccc4C#N)c3n2)ccc1F [compound 292] | < 10
43 | COc1cc(F)cc(-c2cnc3ccc(-c4cccc(O[C@@H](C)Cn5cncn5)n4)nn23)c1C#N [Example 452, 4-fluoro-2-methoxy-6-[6-(6-{[(2S)-1-(1H-1,2,4-triazol-1-yl)propan-2-yl]oxy}pyridin-2-yl)imidazo[1,2-b]pyridazin-3-yl]benzonitrile] | < 10
44 | COc1cccc(-c2cnc3ccc(-c4ccc(F)c(O[C@@H](C)Cn5cnnn5)c4)nn23)n1 [compound 432] | < 10

— patent US12528816B2, “Substituted imidazo [1,2-b] pyridazines and [1, 2, 4] triazolo [ 4,3-b] pyridazines as camkii inhibitors” (Cardurion Pharmaceuticals, INC., priority 2020, dated 2026)
